The NIST ThermoML archive (doi:10.1021/je700438d)

Assay: mn = molality of the nth substance listed, in mol/kg
Conditions: Liquid, Vibrating tube method

[Cl-].[Li+] [lithium chloride] + CCO
mass density [kg/m3]
Conditions | 323.15 K | 348.15 K
140 kPa, m1 = 0.1049 | – | 743.86
150 kPa, m1 = 2.022 | – | 803.25
170 kPa, m1 = 0.3023 | – | 751.06
420 kPa, m1 = 1.222 | – | 780.84
540 kPa, m1 = 2.88 | – | 825.55
740 kPa, m1 = 0.5873 | – | 761.48
4960 kPa, m1 = 2.022 | – | 808.25
5060 kPa, m1 = 0.3023 | – | 756.68
5060 kPa, m1 = 0.5873 | – | 766.32
5060 kPa, m1 = 1.222 | – | 785.85
5080 kPa, m1 = 0.1049 | – | 749.63
5140 kPa, m1 = 2.88 | – | 829.96
10030 kPa, m1 = 2.022 | – | 813.19
10050 kPa, m1 = 0.5873 | 793.02 | –
10060 kPa, m1 = 0.1049 | – | 755.18
10070 kPa, m1 = 0.3023 | – | 762.15
10080 kPa, m1 = 2.022 | 833.25 | –
10080 kPa, m1 = 2.88 | 854.11 | 834.46
10200 kPa, m1 = 1.222 | 811.76 | –
10210 kPa, m1 = 1.222 | – | 791.09
10230 kPa, m1 = 0.3023 | 784 | –
10530 kPa, m1 = 0.5873 | – | 772.13
14960 kPa, m1 = 2.022 | – | 817.67
15060 kPa, m1 = 0.3023 | 788.31 | –
15060 kPa, m1 = 2.88 | – | 838.73
15120 kPa, m1 = 0.3023 | – | 767.36
15230 kPa, m1 = 2.022 | 837.42 | –
15240 kPa, m1 = 2.88 | 858.04 | –
15280 kPa, m1 = 1.222 | – | 795.92
15290 kPa, m1 = 0.5873 | – | 776.89
15290 kPa, m1 = 1.222 | 816.02 | –
15320 kPa, m1 = 0.1049 | 781.93 | –
15410 kPa, m1 = 0.1049 | – | 760.81
15620 kPa, m1 = 0.5873 | 797.87 | –
20030 kPa, m1 = 2.022 | – | 821.94
20040 kPa, m1 = 0.1049 | 786.01 | –
20060 kPa, m1 = 0.1049 | – | 765.44
20060 kPa, m1 = 2.88 | 861.48 | –
20070 kPa, m1 = 2.88 | – | 842.77
20150 kPa, m1 = 1.222 | 819.88 | –
20410 kPa, m1 = 2.022 | 841.36 | –
20450 kPa, m1 = 0.3023 | 792.88 | –
20470 kPa, m1 = 0.5873 | 801.87 | –
25040 kPa, m1 = 0.3023 | 796.57 | –
25060 kPa, m1 = 0.1049 | 790.15 | –
25060 kPa, m1 = 1.222 | 823.57 | –
25140 kPa, m1 = 0.5873 | 805.52 | –
25300 kPa, m1 = 2.88 | 864.98 | –
25310 kPa, m1 = 2.022 | 844.84 | –
30010 kPa, m1 = 2.022 | 847.97 | –
30060 kPa, m1 = 0.3023 | 800.4 | –
30060 kPa, m1 = 0.5873 | 809.15 | –
30070 kPa, m1 = 2.88 | 867.94 | –
30150 kPa, m1 = 0.1049 | 794.13 | –
30420 kPa, m1 = 1.222 | 827.32 | –
35020 kPa, m1 = 0.3023 | 803.97 | –
35210 kPa, m1 = 2.88 | 870.9 | –
35220 kPa, m1 = 0.5873 | 812.74 | –
35410 kPa, m1 = 1.222 | 830.59 | –
35420 kPa, m1 = 2.022 | 851.3 | –
35610 kPa, m1 = 0.1049 | 798.15 | –
39860 kPa, m1 = 2.88 | 873.36 | –
39940 kPa, m1 = 0.1049 | 801.15 | –
39960 kPa, m1 = 1.222 | 833.36 | –
39970 kPa, m1 = 0.5873 | 815.82 | –
39970 kPa, m1 = 2.022 | 853.89 | –
39980 kPa, m1 = 0.3023 | 807.32 | –
